One data set deals with high-fat fed mice. The experiment in a line: glucose tolerance and plasma insulin in high-fat fed mice. In kind it is in vivo, mouse. The protocol:
Insulin and glucose responses during the glucose tolerance test were calculated as the incremental plasma values integrated over a period of 120 min after injection of glucose. Areas under curves of insulin and glucose responses were calculated using the Graph Prism program (SOURCE?). Data distribution was analyzed by the Kolmogorov-Smirnov test. Data were presented as mean ±SEM and unpaired Student's t test was used to compare two groups. When experimental series involved more than two groups, statistical analysis was done by one-way or two-way ANOVA and further post-hoc (Dunnett, Tukey or Bonferroni) t tests. Statistical analysis was performed with SPSS 11.0 or GraphPad Prism 4 programs.

In another data set the test system is diabetic rats. The data set can be described thus: plasma lipids of diabetic rats. In kind it is in vivo, rat.
Data set [1] relates to streptozotocin-induced diabetic rats with undetectable circulating insulin.
Experimental: Male Wistar rats weighting 180-220 g were purchased from Harlan (Interfauna Ibèrica S.A., Spain). Diabetes was induced by a single intraperitoneal injection of a freshly prepared solution of streptozotocin (in some studies the dose was 45 mg/kg body weight and in some others 100 mg/kg body weight dissolved in 50 mM citrate buffer, pH 4.5). Only diabetic animals with glycemia above 300 mg/dl were used. The animals were housed in animal quarters at 22° C. with a 12 h light/12 h dark cycle and were fed ad libitum. All procedures used were approved by the animal ethical committee of the University of Barcelona, Spain.
Osmotic minipumps delivering B6V10 (2.5 μmol/kg body wt/day) or decavanadate (2.5 μmol/kg body wt/day) were implanted subcutaneously in diabetic rats anaesthetised by ketamine hydrochloride (95 mg/kg) and xylasine (10 mg/kg). […] Glycemia was measured on arterio-venous blood collected from the tail vessels at 09:00 am for two weeks, before the administration of vanadate. Insulin concentrations were determined before and after treatment. In another set of experiments, B6V10 was orally administered at a single dose of 5 μmol/kg/day during the first week and 10 μmol/kg/day during 2 additional weeks by gastric gavage. A control group received the corresponding decavanadate salt in the absence of benzylamine. At the end of the treatment, animals were sacrificed and the liver, fat pad, heart and lung were kept at −80° C. and the plasma at −20° C. until their use for in vitro analysis.
In glucose tolerance tests and in chronic treatments, circulating glucose concentrations were determined by a rapid glucose analyser (Accutrend® Sensor Comfort, Roche, Basel. Switzerland). Plasma insulin (IRI) concentration was determined by ELISA method using a kit obtained from Crystal Chem. Inc. (Downers Grove, Ill.).
To this end, rats were made diabetic by the injection of a large dose of streptozotocin (100 mg/kg) that eliminates β-pancreatic insulin content.
Another data set has as its system insulin receptor. The experiment in a line: tyrosine phosphorylation of insulin receptor in isolated rat adipocytes. To be noted: 25 μM. In kind it is cell-based. The protocol:
(§1) Isolated fat cells were disrupted for total membrane preparation by hypo-osmotic lysis in a 20 mM HES buffer and an antiprotease and antiphosphatase cocktail as reported by Abella et al. (2003, Diabetes 52: 1004-1013). Protein concentrations were determined by the Bradford method (Bradford, 1976, Anal. Biochem. 72: 248-254) with gamma-globulin as protein concentration standard. Immunoprecipitation and immunoblot assays were performed as previously described by Abella et al. (2004, Id.) with the use of a monoclonal antiphosphotyrosine antibody for the immunoprecipitation and an anti-insulin receptor antibody for immunobloting, respectively. SDS-polyacrylamide gel electrophoresis was performed on membrane proteins following conventional procedures. Proteins were transferred to Immobilon and immunoblotting was performed as reported by Castello et al. (1994, J. Biol. Chem. 269: 5905-5912).
The mechanism of action of B6V10 was investigated in isolated rat adipocytes. Adipose cells from Wistar rats were incubated for different times in the presence of 25 μM hexaquis(benzylammonium) decavanadate (B6V10). […] Subsequently, 2-deoxyglucose uptake (results shown in FIG. 7A), tyrosine phosphorylation of insulin receptor (FIG. 7B), phospho-Thr^308-protein kinase B (FIG. 7C) and phospho-Ser^473-protein kinase B (FIG. 7D) was measured. […]

The conditions of data set [2]: in vivo.
Data set [3] relates to adipocytes from treated diabetic rats. The data set can be described thus: glucose transport in adipocytes isolated from chronically treated diabetic rats. It is filed as in vivo, rat. To be noted: fourteen days of treatment.
The subject of a further data set is db/db mice. The data set can be described thus: chronic treatment of obese diabetic db/db mice, glycemia. In kind it is in vivo, mouse. The protocol: Chronic in vivo efficacy of B6V10 was evaluated in streptozotocin-induced diabetic rats and in db/db mice. Streptozotocin-induced (45 mg/kg) diabetic rats were subcutaneously treated with hexaquis(benzylammonium) decavanadate (2.5 μmol/kg) (B6V10, solid squares, FIG. 8A) or with decavanadate (2.5 μmol/kg) (V10, open circles, FIG. 8A) delivered subcutaneously by osmotic minipumps implanted in the dorsal region. Diabetic rats were also sham-operated (untreated, solid diamonds, FIG. 8A). […] These experiments were repeated using an oral administration protocol. Streptozotocin-induced (45 mg/kg) diabetic rats were orally treated with hexaquis(benzylammonium) decavanadate (5 μmol/kg from day 0 to day 7 and 10 μmol/kg/day from day 7 to day 17) (B6V10, solid squares, FIG. 8B) or received decavanadate (10 μmol/kg) (V10, open circles, FIG. 8B). Nondiabetic rats were also untreated (solid triangles, FIG. 8B).

The subject of the next data set is protein kinase B. The experiment in a line: protein kinase B phosphorylation in isolated rat adipocytes. In kind it is cell-based. Conditions: 25 μM. The protocol: as §1
The mechanism of action of B6V10 was investigated in isolated rat adipocytes. Adipose cells from Wistar rats were incubated for different times in the presence of 25 μM hexaquis(benzylammonium) decavanadate (B6V10). Cells were also incubated in the presence of insulin (100 nM, 45 min), decavanadate (25 μM, 45 min) or semicarbazide (1 mM, 45 min). Subsequently, 2-deoxyglucose uptake (results shown in FIG. 7A), tyrosine phosphorylation of insulin receptor (FIG. 7B), phospho-Thr^308-protein kinase B (FIG. 7C) and phospho-Ser^473-protein kinase B (FIG. 7D) was measured. […] The phosphorylation of protein kinase B induced by B6V10 was parallel to activation of glucose transport (FIGS. 7C and 7D).
The effects of incubation with semicarbazide or phosphatidylinositol 3-kinase inhibitors were also investigated. Adipose cells were incubated with B6V10 (25 μM, 45 min) in the absence or presence of wortmannin (2 μM, 45 min), LY294002 (10 μM, 45 min) or semicarbazide (1 mM, 45 min) and thereafter 2-deoxyglucose uptake was determined during 5 min. Activation of protein kinase B phosphorylation induced by B6V10 was blocked by semicarbazide and it was not observed by decavanadate. In addition, phosphatidylinositol 3-kinase inhibitors wortmannin and LY294002 blocked B6V10-induced glucose transport (FIG. 7E).

Consider one substance from patent US20080227809A1, “Arylalkylamine Vanadium (V) Salts for the Treatment and/or Prevention of Diabetes Mellitus” (GENMEDICA THERAPEUTICS SL, priority 2004, published 2008).

“Also recorded” adds a separate entry of the source.

Turning to “hexaquis(benzylammonium) decavanadate [Example B6V10]”, the plasma insulin levels result in the data set on high-fat fed mice (acute administration, mice made glucose intolerant by a high fat diet) is “improved plasma insulin levels; also recorded: ameliorated the pattern of plasma insulin levels”. In the data set on high-fat fed mice (high-fat fed mice), the glucose tolerance entry is on record as “amelioration of glucose tolerance”. Moreover, in the data set with diabetic rats, the “plasma concentration of cholesterol” value was “normalized”, the “plasma concentration of free fatty acids” value is recorded as “normalized” and the “plasma concentration of triglycerides” value is reported as “normalized”. Besides, in data set [1] (after 28 days, 2.5 μmol/kg), the plasma glucose result is recorded as “reduced” and the plasma insulin entry is reported as “without any observable change”. Besides, the “body weight or organ weights” value in data set [1] (rat, in vivo) is given as “did not affect”. Moreover, the “tyrosine phosphorylation of insulin receptors” value in the data set on insulin receptor is “undetectable”. Further, in data set [2], the hypoglycemia entry is recorded as “did not cause hypoglycemia” and the toxicological side effects result is reported as “did not show toxicological side effects”. The “glucose transport in adipocytes of treated rats under basal conditions” value in data set [3] is listed as “increased glucose transport under basal conditions equivalent to that seen in the presence of insulin”. For the same substance, the effect on glycemia entry in the data set with db/db mice is recorded as “ameliorated glycemia”. In the data set on protein kinase B, the “protein kinase B phosphorylation” value is “rapidly stimulated” and the “time after addition at which protein kinase B phosphorylation was detectable” value amounted to 2.5 min. Besides, in the data set with protein kinase B (semicarbazide 1 mM, 45 min), the “protein kinase B phosphorylation in the presence of semicarbazide” value is “blocked”.
